Reference: patent US10688031B2, “Low-toxicity sophorolipid-containing composition and use therefor” (Saraya Co., Ltd., priority 2013, dated 2020)

Legend:
[1] = Critical micelle concentration (CMC) and surface tension-reducing ability, Wilhelmy method; type: physicochemical
Method: The critical micelle concentration (CMC) and surface tension-reducing ability were measured according to the Wilhelmy method. The measurements were performed at pH 7 at 20° C. using a CBVP-Z automatic surface tensiometer (produced by Kyowa Interface Science Co., Ltd.). For pH adjustment, an aqueous sodium hydroxide solution or an aqueous hydrochloric acid solution was used.
The critical micelle concentration (CMC) and surface tension-reducing ability of these SL-containing compositions were measured, and their performance as surfactants (wettability, solubilizing power, detergency, and foamability) was evaluated. The critical micelle concentration (CMC) and surface tension-reducing ability were measured in the same manner as in Test Example 2 according to the Wilhelmy method. Specifically, the measurement was performed at pH 7 at 20° C. using a CBVP-Z automatic surface tensiometer (produced by Kyowa Interface Science Co., Ltd.).

HeLa cells = experiment: Cytotoxicity test using HeLa cells (MTT assay); type: cell-based, human; settings: 48 hours of treatment
Method: HeLa cells (Kurabo Industries, Ltd.) were seeded in a 96-well plate to a concentration of 2×10^4 cells/well and cultured in Dulbecco's Modified Eagle Medium (produced by Nissui Pharmaceutical Co., Ltd.) containing 10% NCS (Newborn Calf Serum: produced by Invitrogen), non-essential amino acids, 58 μg/ml L-glutamic acid, 60 μg/ml kanamycin at 37° C., 5% CO2 for 72 hours. The medium was replaced with media containing the samples. After 48 hours, each medium was replaced with a medium containing 1 mg/ml MTT (3-(4,5-dimethyl-2-thiazolyl)-2,5-diphenyl-2H-tetrazolium bromide). After the treatment was allowed to proceed for 2 hours, formazan dye was extracted with isopropanol. Absorbance at a wavelength of 570 nm was measured. The viability % of the cells was calculated according to the following Formula.
The cell viability was calculated from the above MTT assay, and the cell lethal concentration (IC50) was determined from the obtained cell viability.

| Structure (SMILES) | CMC ([1]; Table 5, repeated from Test Example 2) [ppm] | Critical micelle concentration (CMC) ([1]; pH 7, 20° C., Table 4) [ppm] | Surface tension-reducing ability ([1]; pH 7, 20° C., Table 4) [mN/m] | cell lethal concentration (IC50) (HeLa cells) [ppm] |
| --- | --- | --- | --- | --- |
| CCCCCCCCCCCCOS(=O)(=O)[O-].[Na+] [SLS, Sodium Lauryl Sulfate] | 300 | 300 | 34.0 | <10 |
| CCCCCCCC/C=C\CCCCCCCC(=O)O [oleic acid] | – | – | – | 300 |
